Tests used:
Format in all cases: in vivo
kochia (Kochia scoparia) [1] = experiment: Test A postemergence, visual plant response rating; conditions: for Kochia plant response rating (0 to 100 scale): 500 g ai/ha, postemergence, 0 is no effect, 100 is complete control; for Kochia plant response rating: Postemergence, 125 g ai/ha, 0 to 100 scale (0 no effect, 100 complete control)
Excerpt: (§1) Seeds of plant species selected from barnyardgrass (Echinochloa crus-galli), kochia (Kochia scoparia), ragweed (common ragweed, Ambrosia elatior), Italian ryegrass (Lolium multiflorum), foxtail, giant (giant foxtail, Setaria faberii), foxtail, green (green foxtail, Setaria viridis), and pigweed (Amaranthus retroflexus) were planted into a blend of loam soil and sand and treated preemergence with a directed soil spray using test chemicals formulated in a non-phytotoxic solvent mixture which included a surfactant.
(§2) At the same time, plants selected from these weed species and also wheat (Triticum aestivum), corn (Zea mays), blackgrass (Alopecurus myosuroides), and galium (catchweed bedstraw, Galium aparine) were planted in pots containing the same blend of loam soil and sand and treated with postemergence applications of test chemicals formulated in the same manner. Plants ranged in height from 2 to 10 cm and were in the one- to two-leaf stage for the postemergence treatment. Treated plants and untreated controls were maintained in a greenhouse for approximately 10 days, after which time all treated plants were compared to untreated controls and visually evaluated for injury. Plant response ratings, summarized in Table A, are based on a 0 to 100 scale where 0 is no effect and 100 is complete control. A dash (-) response means no test result.

[2] = system: blackgrass (Alopecurus myosuroides); experiment: Test A postemergence, visual plant response rating; conditions: for Blackgrass plant response rating (0 to 100 scale): 500 g ai/ha, postemergence, 0 is no effect, 100 is complete control; for Blackgrass plant response rating: Postemergence, 125 g ai/ha, 0 to 100 scale (0 no effect, 100 complete control)
Excerpt: as §1, §2

[3] = system: galium (catchweed bedstraw, Galium aparine); experiment: Test A postemergence, visual plant response rating; conditions: for Galium plant response rating (0 to 100 scale): 500 g ai/ha, postemergence, 0 is no effect, 100 is complete control; for Galium plant response rating: Postemergence, 125 g ai/ha, 0 to 100 scale (0 no effect, 100 complete control)
Excerpt: as §1, §2

[4] = system: Italian ryegrass (Lolium multiflorum); experiment: Test A postemergence, visual plant response rating; conditions: for Ryegrass, Italian plant response rating (0 to 100 scale): 500 g ai/ha, postemergence, 0 is no effect, 100 is complete control; for Ryegrass, Italian plant response rating: Postemergence, 125 g ai/ha, 0 to 100 scale (0 no effect, 100 complete control)
Excerpt: as §1, §2

[5] = system: barnyardgrass (Echinochloa crus-galli); experiment: Test A postemergence, visual plant response rating; conditions: for Barnyardgrass plant response rating (0 to 100 scale): 500 g ai/ha, postemergence, 0 is no effect, 100 is complete control; for Barnyardgrass plant response rating: Postemergence, 125 g ai/ha, 0 to 100 scale (0 no effect, 100 complete control)
Excerpt: as §1, §2

[6] = system: pigweed (Amaranthus retroflexus); experiment: Test A postemergence, visual plant response rating; conditions: for Pigweed plant response rating (0 to 100 scale): 500 g ai/ha, postemergence, 0 is no effect, 100 is complete control; for Pigweed plant response rating: Postemergence, 125 g ai/ha, 0 to 100 scale (0 no effect, 100 complete control)
Excerpt: as §1, §2

[7] = system: ragweed (common ragweed, Ambrosia elatior); experiment: Test A postemergence, visual plant response rating; conditions: for Ragweed plant response rating (0 to 100 scale): 500 g ai/ha, postemergence, 0 is no effect, 100 is complete control; for Ragweed plant response rating: Postemergence, 125 g ai/ha, 0 to 100 scale (0 no effect, 100 complete control)
Excerpt: as §1, §2

[8] = system: foxtail, giant (giant foxtail, Setaria faberii); experiment: Test A postemergence, visual plant response rating; conditions: for Foxtail, Giant plant response rating (0 to 100 scale): 500 g ai/ha, postemergence, 0 is no effect, 100 is complete control; for Foxtail, Giant plant response rating: Postemergence, 125 g ai/ha, 0 to 100 scale (0 no effect, 100 complete control)
Excerpt: as §1, §2

corn (Zea mays) = experiment: Test A postemergence, visual plant response rating; conditions: for Corn plant response rating (0 to 100 scale): 500 g ai/ha, postemergence, 0 is no effect, 100 is complete control; for Corn plant response rating: Postemergence, 125 g ai/ha, 0 to 100 scale (0 no effect, 100 complete control)
Excerpt: as §1, §2

[9] = system: wheat (Triticum aestivum); experiment: Test A postemergence, visual plant response rating; conditions: for Wheat plant response rating (0 to 100 scale): 500 g ai/ha, postemergence, 0 is no effect, 100 is complete control; for Wheat plant response rating: Postemergence, 125 g ai/ha, 0 to 100 scale (0 no effect, 100 complete control)
Excerpt: as §1, §2

[10] = system: sedge, umbrella (small-flower umbrella sedge, Cyperus difformis); experiment: Test B flooded paddy test, visual plant response rating; conditions: 250 g ai/ha, Flood, applied to paddy water, 2-leaf stage, evaluated after 13 to 15 days
Procedure: (§3) Plant species in the flooded paddy test selected from rice (Oryza sativa), sedge, umbrella (small-flower umbrella sedge, Cyperus difformis), ducksalad (Heteranhera limosa), and barnyardgrass (Echinochloa crus-galli) were grown to the 2-leaf stage for testing. At time of treatment, test pots were flooded to 3 cm above the soil surface treated by application of test compounds directly to the paddy water, and then maintained at that water depth for the duration of the test. Treated plants and controls were maintained in a greenhouse for 13 to 15 days, after which time all species were compared to controls and visually evaluated. […] A dash (-) response means no test result.

rice (Oryza sativa) = experiment: as above; conditions: 250 g ai/ha, Flood, applied to paddy water, 2-leaf stage, evaluated after 13 to 15 days
Procedure: as §3

[11] = system: barnyardgrass (Echinochloa crus-galli); experiment: as above; conditions: 250 g ai/ha, Flood, applied to paddy water, 2-leaf stage, evaluated after 13 to 15 days
Procedure: as §3

[12] = system: ducksalad (Heteranhera limosa); experiment: as above; conditions: 250 g ai/ha, Flood, applied to paddy water, 2-leaf stage, evaluated after 13 to 15 days
Procedure: as §3

kochia (Kochia scoparia) [13] = experiment: Test A preemergence, visual plant response rating; conditions: for Kochia plant response rating: 125 g ai/ha, preemergence, 0 to 100 scale, 0 no effect, 100 complete control; for Kochia plant response rating (0 to 100 scale): 500 g ai/ha Preemergence, approx. 10 days
Excerpt: as §1, §2

[14] = system: Italian ryegrass (Lolium multiflorum); experiment: Test A preemergence, visual plant response rating; conditions: for Ryegrass, Italian plant response rating: 125 g ai/ha, preemergence, 0 to 100 scale, 0 no effect, 100 complete control; for Ryegrass, Italian plant response rating (0 to 100 scale): 500 g ai/ha Preemergence, approx. 10 days
Excerpt: as §1, §2

[15] = system: barnyardgrass (Echinochloa crus-galli); experiment: Test A preemergence, visual plant response rating; conditions: for Barnyardgrass plant response rating: 125 g ai/ha, preemergence, 0 to 100 scale, 0 no effect, 100 complete control; for Barnyardgrass plant response rating (0 to 100 scale): 500 g ai/ha Preemergence, approx. 10 days
Excerpt: as §1, §2

[16] = system: pigweed (Amaranthus retroflexus); experiment: Test A preemergence, visual plant response rating; conditions: for Pigweed plant response rating: 125 g ai/ha, preemergence, 0 to 100 scale, 0 no effect, 100 complete control; for Pigweed plant response rating (0 to 100 scale): 500 g ai/ha Preemergence, approx. 10 days
Excerpt: as §1, §2

[17] = system: foxtail, giant (giant foxtail, Setaria faberii); experiment: Test A preemergence, visual plant response rating; conditions: for Foxtail, Giant plant response rating: 125 g ai/ha, preemergence, 0 to 100 scale, 0 no effect, 100 complete control; for Foxtail, Giant plant response rating (0 to 100 scale): 500 g ai/ha Preemergence, approx. 10 days
Excerpt: as §1, §2

SMILES	Kochia plant response rating (0 to 100 scale) (kochia (Kochia scoparia) [1])	Kochia plant response rating (kochia (Kochia scoparia) [1])	Blackgrass plant response rating (0 to 100 scale) [2]	Blackgrass plant response rating [2]	Galium plant response rating (0 to 100 scale) [3]	Galium plant response rating [3]	Ryegrass, Italian plant response rating (0 to 100 scale) [4]	Ryegrass, Italian plant response rating [4]	Barnyardgrass plant response rating (0 to 100 scale) [5]	Barnyardgrass plant response rating [5]	Pigweed plant response rating (0 to 100 scale) [6]	Pigweed plant response rating [6]	Ragweed plant response rating (0 to 100 scale) [7]	Ragweed plant response rating [7]	Foxtail, Giant plant response rating (0 to 100 scale) [8]	Foxtail, Giant plant response rating [8]	Corn plant response rating (0 to 100 scale) (corn (Zea mays))	Corn plant response rating (corn (Zea mays))	Wheat plant response rating (0 to 100 scale) [9]	Wheat plant response rating [9]	other results
Cc1nn(C)c(=O)c(/C(=N/OC(C)C)c2ccc(F)c3ccccc23)c1O [Compound 88]	70	60	90	80	90	90	100	100	80	50	100	90	90	100	90	80	30	10	50	10	Plant response rating, Sedge, Umbrella (0 to 100 scale, 0 is no effect, 100 is complete control) [10]: 0; Plant response rating, Rice (0 to 100 scale, 0 is no effect, 100 is complete control) (rice (Oryza sativa)): 0; Plant response rating, Barnyardgrass (0 to 100 scale, 0 is no effect, 100 is complete control) [11]: 0; Plant response rating, Ducksalad (0 to 100 scale, 0 is no effect, 100 is complete control) [12]: 0; Kochia plant response rating (kochia (Kochia scoparia) [13]): 10; Kochia plant response rating (0 to 100 scale) (kochia (Kochia scoparia) [13]): 90; Ryegrass, Italian plant response rating [14]: 90; Ryegrass, Italian plant response rating (0 to 100 scale) [14]: 100; Barnyardgrass plant response rating [15]: 70; Barnyardgrass plant response rating (0 to 100 scale) [15]: 90; Pigweed plant response rating [16]: 100; Pigweed plant response rating (0 to 100 scale) [16]: 100; Foxtail, Giant plant response rating [17]: 90; Foxtail, Giant plant response rating (0 to 100 scale) [17]: 100
CON=C(c1cc(Cl)ccc1Cl)c1c(O)c(C)nn(C)c1=O [Compound 98]	80	60	90	80	100	80	80	80	80	50	80	70	90	80	80	40	20	0	20	0	Plant response rating, Sedge, Umbrella (0 to 100 scale, 0 is no effect, 100 is complete control) [10]: 0; Plant response rating, Rice (0 to 100 scale, 0 is no effect, 100 is complete control) (rice (Oryza sativa)): 0; Plant response rating, Barnyardgrass (0 to 100 scale, 0 is no effect, 100 is complete control) [11]: 0; Plant response rating, Ducksalad (0 to 100 scale, 0 is no effect, 100 is complete control) [12]: 0; Kochia plant response rating (kochia (Kochia scoparia) [13]): 60; Kochia plant response rating (0 to 100 scale) (kochia (Kochia scoparia) [13]): 60; Ryegrass, Italian plant response rating [14]: 80; Ryegrass, Italian plant response rating (0 to 100 scale) [14]: 90; Barnyardgrass plant response rating [15]: 50; Barnyardgrass plant response rating (0 to 100 scale) [15]: 60; Pigweed plant response rating [16]: 90; Pigweed plant response rating (0 to 100 scale) [16]: 100; Foxtail, Giant plant response rating [17]: 60; Foxtail, Giant plant response rating (0 to 100 scale) [17]: 70
Cc1nn(C)c(=O)c(/C(=N\OC(C)C)c2ccc(F)c3ccccc23)c1O [Compound 89]	80	70	100	90	90	90	100	100	60	40	100	80	90	90	80	70	30	20	70	50	Plant response rating, Sedge, Umbrella (0 to 100 scale, 0 is no effect, 100 is complete control) [10]: 0; Plant response rating, Rice (0 to 100 scale, 0 is no effect, 100 is complete control) (rice (Oryza sativa)): 0; Plant response rating, Barnyardgrass (0 to 100 scale, 0 is no effect, 100 is complete control) [11]: 0; Plant response rating, Ducksalad (0 to 100 scale, 0 is no effect, 100 is complete control) [12]: 0; Kochia plant response rating (kochia (Kochia scoparia) [13]): 60; Kochia plant response rating (0 to 100 scale) (kochia (Kochia scoparia) [13]): 90; Ryegrass, Italian plant response rating [14]: 90; Ryegrass, Italian plant response rating (0 to 100 scale) [14]: 100; Barnyardgrass plant response rating [15]: 70; Barnyardgrass plant response rating (0 to 100 scale) [15]: 100; Pigweed plant response rating [16]: 100; Pigweed plant response rating (0 to 100 scale) [16]: 100; Foxtail, Giant plant response rating [17]: 90; Foxtail, Giant plant response rating (0 to 100 scale) [17]: 100
